{"source": "patent US7776826B2", "about": "“Method for fostering bone formation and preservation” (Unigene Laboratories, Inc., priority 2004, dated 2010)", "assay_type_in_all_cases": "in vivo, rat", "key": {"Male Sprague-Dawley rats [1]": {"system": "Male Sprague-Dawley rats", "assay": "Serum osteocalcin concentration at day 21, Groups K-R", "excerpt": "FIG. 12 provides a measurement of the serum osteocalcin concentration (in ng/ml) in the blood of the rats in Groups K-R when the rats were sacrificed 21 days after commencement of treatment. The meaning of the abbreviated terms is the same as in FIGS. 10 and 11. […] [*=p value<0.05, while **=p value<0.01];\nFIG. 12 is a bar graph which sets forth the osteocalcin levels determined, at the time of sacrifice, in the blood serum of the rats which were the subject of the analyses illustrated in FIGS. 10 and 11. As indicated above, it is well known that osteocalcin is a biochemical marker indicative of new bone growth.\nThe table additionally includes the standard deviations for the values obtained for each analysis, which standard deviations are also included in FIG. 12."}, "Male Sprague-Dawley rats [2]": {"system": "Male Sprague-Dawley rats", "assay": "MicroCT analysis of left femoral shafts, Groups A-J", "settings": "left femoral shaft with bmx", "excerpt": "FIG. 6 illustrates the results of Micro Computerized Tomography (MicroCT) analyses of the left (ablated) femoral shafts of the rats which are the subjects of FIGS. 3-4. The abbreviations mean the same as in FIGS. 3-5;\nFIG. 6 illustrates the results of a Micro Computerized Tomography (MicroCT) analysis of representative bones taken from the left femoral shaft of control and treated rats. The modality of treatment is set forth in the lower left corner of each of the views, and the abbreviations used therein are the same as those which appear in FIGS. 3-5. The Figure provides a view through a section of each such bone shaft.\nThe bones were thereafter subjected to a variety of sample analysis techniques. These included X-ray analysis wherein the femurs were X-rayed in individually sealed plastic bags; PIXIMUS analysis using a Lunar PIXIMUS scanner to measure bone mineral density in the bone marrow cavity of the femurs; MicroCT analysis; and blood analysis for osteocalcin, PTH, CT, NTX and growth factors."}, "Male Sprague-Dawley rats [3]": {"system": "Male Sprague-Dawley rats", "assay": "Von Kossa stained sections of left femurs subjected to bmx", "settings": "left femur with bmx, PTH daily for 21 days", "excerpt": "FIG. 8 illustrates sections (at 4× magnification) of undecalcified left femurs, subjected to bone marrow ablation (bmx), wherein the bone sections were stained with Von Kossa stain;\nFIG. 8 provides views of stained and […] bone sections of the left femur of representative rats subjected to the following treatment modalities: Control day 0; Control day 21; Sham day 21; bmx day 0; bmx+PBS daily for 7 days; bmx+PBS daily for 14 days; bmx+PBS daily for 21 days; bmx+ parathyroid hormone (PTH[1-34]NH2) daily for 7 days; bmx+PTH daily for 14 days, and bmx+PTH daily for 21 days. […] These views provide substantial additional evidence of the efficacy of the method of the present invention."}, "[4]": {"system": "osteoporotic female Sprague-Dawley rats", "assay": "Lumbar vertebral bone mineral density and bone formation rate in ovariectomized osteoporotic rats, without mechanical induction", "settings": "OVX rats, 4 weeks subcutaneous treatment, no mechanical induction", "protocol": "FIG. 15 is a bar graph comparing the Lumbar Vertebral Bone Mineral Density obtained in osteoporotic female Sprague-Dawley rats wherein the osteoporosis was induced via an ovariectomy. The rats were treated with (1) PTH[1-31]-NH2; (2) PTH[1-34]-NH2; and PTH[1-34]-OH; and\nFIG. 16 is a bar graph comparing the Lumbar Vertebral Bone Formation Rate obtained in osteoporotic female Sprague-Dawley rats wherein the osteoporosis was induced via an ovariectomy. The rats were treated with (1) PTH[1-31]-NH2; (2) PTH[1-34]-NH2; and PTH[1-34]-OH.\nA series of experiments was performed comparing (1) lumbar vertebral bone mineral density, and (2) lumbar vertebral bone formation rate achieved with PTH[1-31]-NH2 and PTH[1-34]-OH compared to the preferred PTH[1-34]-NH2 analog discussed above in the absence of the mechanical induction step of the invention. The study involved a four-week treatment of female Sprague-Dawley rats at 10 months of age, and 6 months post-ovariectomy (“OVX”), which induces osteoporosis, with one of the three above-noted parathyroid hormone truncates. The rats were randomized into the following groups: sham OVX, OVX+ vehicle, OVX+PTH [1-31]-NH2 or PTH [1-34]-NH2 (obtained from Unigene Laboratories, Inc.) at 2.5, 10 or 40 μg/kg/day subcutaneous, or PTH[1-34]-OH (obtained from Bachem) at 10 μg/kg/day subcutaneous. After 4 weeks of treatment, the right femur of each animal was analyzed by DEXA and bone histomorphometry. FIG. 15 is a bar graph providing a comparison of the lumbar vertebral bone mineral density achieved with PTH[1-31]-NH2, PTH[1-34]-NH2 and PTH[1-34]-OH. FIG. 16 is a bar graph comparing the lumbar vertebral formation rates achieved with these same truncates. […] Because of the similarity of anabolic action among the above-discussed parathyroid hormones, it is therefore reasonable to expect that all known PTH analogs will advantageously function in the desired manner in the method of the present invention."}}, "data": [{"substance": "PTH[1-34]-NH2", "values": [{"measurement": "osteocalcin level, in words", "setting": "Male Sprague-Dawley rats [1]; bmx + agent daily for 21 days", "value": "highest osteocalcin level"}, {"measurement": "Osteocalcin mean", "setting": "Male Sprague-Dawley rats [1]; bmx rats, day 21, agent daily for 21 days, Groups K-R", "value": 141.5, "unit": "ng/mL"}, {"measurement": "new bone growth in MicroCT, in words", "setting": "Male Sprague-Dawley rats [2]", "value": "most extensive new bone growth"}, {"measurement": "bone growth within marrow cavity on stained sections, in words", "setting": "Male Sprague-Dawley rats [3]", "value": "greatest such increase"}, {"measurement": "bone anabolic activity (lumbar vertebral bone mineral density and bone formation rate)", "setting": "[4]", "value": "substantially equivalent"}]}]}
